Measurements reported in ChEMBL document CHEMBL2146384 (J Med Chem, 2012).

How the values were obtained:
[1] = biological target: T1, Deoxyuridine 5'-triphosphate nucleotidohydrolase, mitochondrial (Homo sapiens, UniProt P33316); assay: Inhibition of human dUTPase-mediated formation of [5-3H]dUMP expressed in Escherichia coli BL21 (DE3) after 15 mins by HPLC analysis
T1 sequence (P33316 whole entry): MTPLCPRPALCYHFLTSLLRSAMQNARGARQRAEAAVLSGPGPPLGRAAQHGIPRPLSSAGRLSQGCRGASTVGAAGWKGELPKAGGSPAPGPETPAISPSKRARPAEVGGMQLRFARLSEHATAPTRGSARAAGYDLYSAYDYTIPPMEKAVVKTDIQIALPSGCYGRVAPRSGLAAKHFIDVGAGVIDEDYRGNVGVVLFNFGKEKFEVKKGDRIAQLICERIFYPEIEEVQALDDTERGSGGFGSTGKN

Mus musculus [2] = assay: Toxicity in Balb/cA JcL mouse xenografted with human MX1 cells assessed as mortality at 300 mg/kg/day, po co-administered with 5-FU at 15 mg/kg/day as continuous infusion measured on day 15; type: organism-based; conditions: in vivo
[3] = AUC (0 to t) in Balb/cA mouse at 50 mg/kg, po; type: ADME, organism-based; set-up: dose 50 mg/kg, route oral; conditions: plasma
[4] = Cmax in Balb/cA mouse at 50 mg/kg, po; type: ADME, organism-based; set-up: dose 50 mg/kg, route oral; conditions: in vivo
[5] = Half life in Balb/cA mouse at 50 mg/kg, po; type: ADME, organism-based; set-up: dose 50 mg/kg, route oral; conditions: in vivo
[6] = Tmax in Balb/cA mouse at 50 mg/kg, po; type: ADME, organism-based; set-up: dose 50 mg/kg, route oral; conditions: in vivo
MX1 [7] = assay: Potentiation of 5-FU induced antitumor activity in human MX1 cells xenografted in Balb/cA JcL mouse at 300 mg/kg/day, po measured on day 15; type: functional; conditions: MX1, 360 h
MX1 [8] = assay: Antitumor activity against human MX1 cells xenografted in Balb/cA JcL mouse at 300 mg/kg/day, po measured on day 15; type: functional; conditions: MX1, 360 h
Mus musculus [9] = assay: Toxicity in Balb/cA JcL mouse xenografted with human MX1 cells assessed as reduction of body weight at 300 mg/kg/day, po co-administered with 5-FU at 15 mg/kg/day as continuous infusion measured on day 15; type: organism-based; conditions: in vivo
MX1 [10] = assay: Antitumor activity against human MX1 cells xenografted in Balb/cA JcL mouse at 15 mg/kg/day dosed as as continuous infusion measured on day 15; type: functional; conditions: MX1, 360 h

Structure (SMILES)	IC50 [1] [nM]	further results
CC(C)(NS(=O)(=O)c1ccccc1)c1ccc(Cn2ccc(=O)[nH]c2=O)cc1	1800	
CC(C)(CC/C=C/Cn1ccc(=O)[nH]c1=O)NS(=O)(=O)c1ccccc1	1600	
COc1cccc(S(=O)(=O)NC(C)(C)c2ccc(Cn3ccc(=O)[nH]c3=O)cc2)c1	1270	
CC(C)(NS(=O)(=O)c1cccc(OCC2CC2)c1)c1ccc(Cn2ccc(=O)[nH]c2=O)cc1	73	
CC(C)(NS(=O)(=O)c1cccc(OC2CCCC2)c1)c1ccc(Cn2ccc(=O)[nH]c2=O)cc1	31	
CC(C)(NS(=O)(=O)c1cccc(OCC(F)F)c1)c1ccc(Cn2ccc(=O)[nH]c2=O)cc1	73	
COc1cccc(S(=O)(=O)NC(C)(C)CC/C=C/Cn2ccc(=O)[nH]c2=O)c1	340	
CC(C)(CC/C=C/Cn1ccc(=O)[nH]c1=O)NS(=O)(=O)c1cccc(OC2CCCC2)c1	33	
CC(C)(CC/C=C/Cn1ccc(=O)[nH]c1=O)NS(=O)(=O)c1cccc(OCC(F)F)c1	26	
C[C@@H](NS(=O)(=O)c1ccc(Cn2ccc(=O)[nH]c2=O)cc1)c1cccc(OCC2CC2)c1	820	
C[C@@H](NS(=O)(=O)c1ccc(Cn2ccc(=O)[nH]c2=O)cc1)c1cccc(OC2CCCC2)c1	430	
C[C@@H](NS(=O)(=O)c1ccc(Cn2ccc(=O)[nH]c2=O)cc1)c1cccc(OCC(F)F)c1	410	
C[C@@H](NS(=O)(=O)CC/C=C/Cn1ccc(=O)[nH]c1=O)c1cccc(OCC2CC2)c1	39	Activity (Mus musculus [2]): Non-toxic; AUC(0-t) [3]: 19.5 µM·h; Cmax [4]: 19.5 µM; half-life [5]: 53.4 min; Tmax [6]: 30 min; inhibition in vivo at 300 mg/kg/day (MX1 [7]): 68%; inhibition in vivo at 300 mg/kg/day (MX1 [8]): -29%; Activity (Mus musculus [9]): Non-toxic
C[C@@H](NS(=O)(=O)CC/C=C/Cn1ccc(=O)[nH]c1=O)c1cccc(OC2CCCC2)c1	41	
C[C@@H](NS(=O)(=O)CC/C=C/Cn1ccc(=O)[nH]c1=O)c1cccc(OCC(F)F)c1	82	
O=c1[nH]cc(F)c(=O)[nH]1 [FLUOROURACIL]		inhibition in vivo at 15 mg/kg/day (MX1 [10]): 20%
